Measurements taken from patent publication US20100130579A1, “CANCER THERAPY” (Georgetown University, priority 2006, published 2010).
Entries after “also recorded” stand apart in the source; their conditions may differ.

Tests used:
Type in all cases: cell-based
cyclin D1 = assay: Cyclin D1 expression after KED compound; details: as a result of RASSF1A induction
Method: (§1) Anticancer effects and activation of a tumor suppressor gene, RASSF1A) KED-3-63-1, KED 3-63-2 and KED 3-81 were assessed.

RASSF1A = assay: Activation of tumor suppressor gene RASSF1A by KED compounds
Method: as §1

DNA synthesis = assay: Inhibition of DNA synthesis / anticancer effects of KED compounds; details: in the assay used (inhibition of DNA synthesis, FIGS. 7A-7D)
Method: FIGS. 7A-7D. FIGS. 7A-7D show the dose-dependent inhibition of DNA synthesis with KED compounds.
as §1

COc1ccc2c(c1)[nH]c1c(C)c3c(cc12)C=CC(C)(CCC=C(C)C)O3 (centres unmarked) [KED-3-63-1]
cyclin D1 expression (cyclin D1): down-regulated | induction of RASSF1A (RASSF1A): induced RASSF1A | anticancer effects (DNA synthesis): have anti-cancer effects; also recorded: have anticancer effects

COc1ccc2c(c1)[nH]c1c(C)c(OCc3ccccc3)ccc12 [KED-3-63-2]
anticancer effects (DNA synthesis): does not; also recorded: no anti-cancer effects

COc1ccc2c(c1)[nH]c1cc(OCc3ccccc3)c(C)cc12 [KED-3-81]
anticancer effects (DNA synthesis): have anti-cancer effects; also recorded: have anticancer effects
